From PubChem BioAssay (NCI)
Values joined by “and” are separate entries in the source; they are usually repeats but may differ in a detail not shown here. Equal values may be shown once.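 Method: 48-hour compound exposure of cells in 96-well plates, five concentrations, linear interpolation of endpoints. GI50: concentration for 50% inhibition of growth. TGI marks complete inhibition of growth.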

What was measured:
Test in all cases: DTP human tumour cell line panel, 48 h
SR leukemia = test system: SR leukemia
SK-MEL-5 melanoma = test system: SK-MEL-5 melanoma
NCI-H522 lung = test system: NCI-H522 lung
OVCAR-8 ovarian = test system: OVCAR-8 ovarian
A549 NSCLC = test system: A549 NSCLC
COLO 205 colon = test system: COLO 205 colon
K-562 leukemia = test system: K-562 leukemia
DU-145 prostate = test system: DU-145 prostate
SNB-19 CNS = test system: SNB-19 CNS
LOX IMVI melanoma = test system: LOX IMVI melanoma
U251 CNS = test system: U251 CNS
SF-295 CNS = test system: SF-295 CNS
MALME-3M melanoma = test system: MALME-3M melanoma
CCRF-CEM leukemia = test system: CCRF-CEM leukemia
SF-268 CNS = test system: SF-268 CNS
786-0 renal = test system: 786-0 renal
MCF7 breast = test system: MCF7 breast
UACC-257 melanoma = test system: UACC-257 melanoma

SMILES	TGI (SR leukemia)	TGI (SK-MEL-5 melanoma)	TGI (NCI-H522 lung)	TGI (OVCAR-8 ovarian)	TGI (A549 NSCLC)	TGI (COLO 205 colon) [µM]	TGI (K-562 leukemia) [µM]	TGI (DU-145 prostate)	TGI (SNB-19 CNS)	TGI (LOX IMVI melanoma)	TGI (U251 CNS) [µM]	TGI (SF-295 CNS)	TGI (MALME-3M melanoma)	TGI (CCRF-CEM leukemia)	TGI (SF-268 CNS)	TGI (786-0 renal)	TGI (MCF7 breast)	TGI (UACC-257 melanoma)	GI50 (COLO 205 colon) [µM]
O=C(Cc1ccccc1)Nc1nc2ccc(Cl)cc2c2nc(-c3ccco3)nn12	> 77.2 µM	> 100 µM	> 100 µM	> 100 µM	> 100 µM	> 100	> 100	> 100 µM	> 55.6 µM	> 100 µM	> 100	> 100 µM	> 100 µM	> 100 µM	> 100 µM	> 100 µM	> 100 µM	> 100 µM	–
CCCCCCCCCCCCCCCCCCOC(COP(=O)(O)OCC1OC(n2cc(F)c(=O)[nH]c2=O)CC1O)COP(=O)(O)OCC1OC(n2ccc(N)nc2=O)C(O)C1O (centres undefined)	> 100 µM	> 100 µM	> 100 µM	> 100 µM	> 63.6 µM	> 72.9	> 100	> 100 µM	41.2 µM	> 100 µM	50.7	> 100 µM	> 100 µM	> 81.2 µM	> 75 µM	28.1 µM	> 100 µM	> 100 µM	–
CCCCCCCCCCCCCC/C(C(=O)O)=C(\C)C(=O)O	> 100 µM	> 100 µM	> 100 µM	> 100 µM	> 100 µM	> 100	> 100	> 100 µM	> 100 µM	> 100 µM	> 100	> 100 µM	> 100 µM	> 100 µM	> 100 µM	> 100 µM	> 100 µM	> 100 µM	–
CC(=O)OC1OC(C2c3cccc(O)c3C(=O)c3c(O)cc(CO)cc32)C(O)C(O)C1O (centres undefined)	> 100 µM and 33.1 µM	4.26 µM and 4.09 µM	18.8 µM and 16.7 µM	69.3 µM and > 100 µM	21.2 µM and 29.5 µM	7.63	> 100	> 100 µM and 84.1 µM	6.7 µM and 6.51 µM	9.75 µM and 9.49 µM	22.6	10.5 µM and 22 µM	19.5 µM and 25.3 µM	21.5 µM and 17.9 µM	21.8 µM and 33.6 µM	17 µM and 16.2 µM	35.3 µM and > 100 µM	32.8 µM and 33.7 µM	2.7
CN1C(CC(O)c2ccccc2)CCCC1CC(O)(c1ccccc1)c1ccccc1 (centres undefined)	56.6 µM	31 µM	42.3 µM	43 µM	50 µM	34.2	94.8	45.6 µM	36.3 µM	41.5 µM	28.4	30.8 µM	33.8 µM	58.1 µM	43.7 µM	29.1 µM	43.4 µM	33.4 µM	–
CC(C)C(=O)/C=C/c1ccc(Cl)cc1Cl	> 100 µM	27.9 µM	22.8 µM	22.8 µM	30.4 µM	32.7	> 100	27.2 µM	29.3 µM	13.5 µM	25.2	30.9 µM	28.2 µM	50.7 µM	22.5 µM	27.2 µM	14.2 µM	26 µM	–
